Measured values reported in patent US20260193236A1 (Protego Biopharma, Inc., priority 2022, published 2026).
Where two headings read alike, the source gives them in different places.

System: IRE1-XBP1s (XBP1-RLuc splicing reporter in HEK293 T-REx cells)
Experiment: IRE1-XBP1s activation assay (XBP1-RLuc splicing reporter, HEK293 T-REx cells, luminescence relative to thapsigargin)
Format: cell-based
Conditions: 18 h, read-out: Activity (IRE1-XBP1s activation, luminescence as % signal relative to thapsigargin, % Tg)
Experimental: IRE1-XBP1s activation Assay: HEK293 T-REx cells stably expressing the XBP1-RLuc splicing reporter were treated with an IRE1-XBP1s activator provided herein (10 μM) in the presence or absence of the IRE1 active site inhibitor 4μ8C (32 μM) for 18 h. Luminescence was shown as the percentage signal relative to thapsigargin (Tg) (500 nM, 18 h).

[1] = compound 10 μM, HEK293 T-REx XBP1-RLuc reporter cells, relative to thapsigargin (Tg) 500 nM

Cc1ccc(OCCN(C)C(=O)Cn2cc(NC(=O)CCNc3cc4c(cn3)OCO4)cn2)cc1 [Compound 291] showed an activation at 10 µM [1] of 30 to 50%.
For CN(CCOc1ccc(F)cc1)C(=O)Cn1cc(NC(=O)CCOc2ccccc2)cn1 [Compound 29], the activation at 10 µM [1] was < 30%.
Cc1ccc(OCCC(=O)Nc2cnn(CC(=O)N(C)CCOc3ccc(F)c(OC(F)(F)F)c3)c2)c(F)c1 [Compound 78] was tested, and the activation at 10 µM [1] was < 30%.
In the case of Cc1ccc(OCCN(C)C(=O)Cn2cc(NC(=O)CCNc3cc(C(F)(F)F)ccn3)cn2)cc1 [Compound 133], the activation at 10 µM [1] was > 50%.
With Cc1ccc(OCCN(C)C(=O)Cn2cc(NC(=O)CCNc3cncnc3C(C)C)cn2)cc1 [Compound 257] the activation at 10 µM [1] was < 30%.
For Cc1ccc(OCCN(C)C(=O)Cn2cc(NC(=O)CCN(C(=O)OC(C)(C)C)c3ccccc3)cn2)cc1 [Compound 23], the activation at 10 µM [1] was < 30%.
CNc1ccnc(OCCC(=O)Nc2cnn(CC(=O)N(C)CCOc3ccc(C)cc3)c2)n1 [Compound 216] was tested, and the activation at 10 µM [1] was < 30%.
With Cc1ccc(OC[C@@H](C)N(C)C(=O)Cn2cc(NC(=O)CCOc3c(F)cccc3F)cn2)cc1 [Compound 82] the activation at 10 µM [1] was > 50%.
In the case of Cc1ccc(OCCN(C)C(=O)Cn2cc(NC(=O)CCOc3ccc(Cl)cc3F)cn2)cc1 [Compound 48], the activation at 10 µM [1] was < 30%.
In the case of Cc1ccc(OCCN(C)C(=O)Cn2cc(NC(=O)CCNc3ccc(F)nc3C)cn2)cc1 [Compound 196], the activation at 10 µM [1] was > 50%.
In the case of Cc1ccc(OCCN(C)C(=O)Cn2cc(NC(=O)CCNc3cccc(F)n3)cn2)cc1 [Compound 144], the activation at 10 µM [1] was > 50%.
With Cc1ccc(OCCC(=O)Nc2cnn(CC(=O)N(C)CCOc3ccc(F)cc3)c2)c(F)c1 [Compound 75] the activation at 10 µM [1] was < 30%.
For CN(CCOc1cc(C(F)F)on1)C(=O)Cn1cc(NC(=O)CCNc2ccnc(F)n2)cn1 [Compound 272], the activation at 10 µM [1] was < 30%.
Cc1ccc(OCCN(C)C(=O)Cn2cc(NC(=O)CCNc3ccnc(C)c3)cn2)cc1 [Compound 164, N-(1-(2-(methyl(2-(p-tolyloxy)ethyl)amino)-2-oxoethyl)-1H-pyrazol-4-yl)-3-((2-methylpyridin-4-yl)amino)propanamide] gave an activation at 10 µM [1] of 30 to 50%.
For Cc1ccc(OCCN(C)C(=O)Cn2cc(NC(=O)CCNc3cncc(N)c3)cn2)cc1 [Compound 119], the activation at 10 µM [1] was < 30%.
Cc1ccc(OCCC(=O)Nc2cnn(CC(=O)N(C)CCOc3ccc(F)c(Cl)c3)c2)c(F)c1 [Compound 72] was tested, and the activation at 10 µM [1] was < 30%.
In the case of CC(C)c1cncc(F)c1OCCC(=O)Nc1cnn(CC(=O)N(C)CCOc2ccc(OC(F)(F)F)cn2)c1 [Compound 279], the activation at 10 µM [1] was > 50%.
Cc1ccc(OCCN(C)C(=O)Cn2cc(NC(=O)CCOc3cccnc3C(F)(F)F)cn2)cc1 [Compound 16] showed an activation at 10 µM [1] of 30 to 50%.
For Cc1ccc(OCCN(C)C(=O)Cn2cc(NC(=O)CCOc3cccc(Br)n3)cn2)cc1 [Compound 100], the activation at 10 µM [1] was > 50%.
For Cc1ccc(OCCN(C)C(=O)Cn2cc(NC(=O)CCOc3cnccc3C(F)(F)F)cn2)cc1 [Compound 12], the activation at 10 µM [1] was < 30%.
[2H]C([2H])([2H])c1ccc(OCCN(C)C(=O)Cn2cc(NC(=O)CCOc3ccc(C)cc3F)cn2)cc1 [Compound 91] showed an activation at 10 µM [1] of 30 to 50%.
Molecule Cc1ccc(OCCN(C)C(=O)Cn2cc(NC(=O)CCNc3cnc(C#N)c(F)c3)cn2)cc1 [Compound 177] has an activation at 10 µM [1] of 30 to 50%.
For Cc1ccc(OCCN(C)C(=O)Cn2cc(NC(=O)CCNc3cc(N)ccn3)cn2)cc1 [Compound 202], the activation at 10 µM [1] was > 50%.
Cc1ccc(OCCN(C)C(=O)Cn2cc(NC(=O)CCOc3ccc(F)cc3C)cn2)cc1 [Compound 35] was tested, and the activation at 10 µM [1] was > 50%.
In the case of CN(CCOc1cccnc1)C(=O)Cn1cc(NC(=O)CCOc2ccccc2F)cn1 [Compound 41], the activation at 10 µM [1] was < 30%.
For Cc1ccc(OCCN(C)C(=O)Cn2cc(NC(=O)CCOc3c(C)cc(F)cc3C)cn2)cc1 [Compound 58], the activation at 10 µM [1] was 30 to 50%.
With Cc1cnc(OCCN(C)C(=O)Cn2cc(NC(=O)CCNc3ccc(F)nc3C)cn2)nc1 [Compound 244] the activation at 10 µM [1] was < 30%.
For Cc1ccc(OCCN(C)C(=O)Cn2cc(NC(=O)CCOc3ncccc3[N+](=O)[O-])cn2)cc1 [Compound 113], the activation at 10 µM [1] was > 50%.
With COc1cc(NS(=O)(=O)CC(=O)Nc2cnn(CC(=O)N(C)CCOc3ccc(C)cc3)c2)ccn1 [Compound 285, 2-(4-(2-(N-(2-methoxypyridin-4-yl)sulfamoyl)acetamido)-1H-pyrazol-1-yl)-N-methyl-N-(2-(p-tolyloxy)ethyl)acetamide] the activation at 10 µM [1] was < 30%.
Cc1ccc(OCCN(C)C(=O)Cn2cc(NC(=O)CCNc3nc(Cl)ns3)cn2)cc1 [Compound 134] was tested, and the activation at 10 µM [1] was > 50%.
With Cc1ccc(OCCN(C)C(=O)Cn2cc(NC(=O)CCNc3cccnc3F)cn2)cc1 [Compound 189] the activation at 10 µM [1] was < 30%.
Molecule Cc1ccc(OCCN(C)C(=O)Cn2cc(NC(=O)[C@@H](CNc3ccc(F)nc3C)C(C)C)cn2)cc1 [Compound 171] has an activation at 10 µM [1] of 30 to 50%.
Cc1ncc(OCCN(C)C(=O)Cn2cc(NC(=O)CCNc3ccc(F)nc3C)cn2)cn1 [Compound 241] was tested, and the activation at 10 µM [1] was < 30%.
Cc1cnc(OCCN(C)C(=O)Cn2cc(NC(=O)CCNc3ccc(F)nc3C)cn2)cn1 [Compound 240] was tested, and the activation at 10 µM [1] was < 30%.
In the case of COc1ccc(OCCN(C)C(=O)Cn2cc(NC(=O)CCNc3ccnc(C)c3)cn2)cc1 [Compound 166], the activation at 10 µM [1] was < 30%.
In the case of Cc1ccc(OCC(C)(C)N(C)C(=O)Cn2cc(NC(=O)CCOc3ccccc3F)cn2)cc1 [Compound 63], the activation at 10 µM was > 50%.
For Cc1ccc2nc(OCCN(C)C(=O)Cn3cc(NC(=O)CCNc4ccc(F)nc4C)cn3)sc2c1 [Compound 239], the activation at 10 µM [1] was < 30%.
With Cc1ccc(OCCN(C)C(=O)Cn2cc(NC(=O)CCOc3c(F)cccc3F)cn2)cc1 [Compound 56] the activation at 10 µM [1] was > 50%.
Cc1ccc(OCCN(C)C(=O)Cn2cc(NC(=O)CCOc3ccnc(NC(=O)OC(C)(C)C)c3)cn2)cc1 [Compound 101] was tested, and the activation at 10 µM [1] was > 50%.
Cc1ccc(OCCN(C)C(=O)Cn2cc(NC(=O)[C@@H](C)CNc3nccc(F)n3)cn2)cc1 [Compound 223] was tested, and the activation at 10 µM [1] was > 50%.
With Cc1ccc(OCCN(C)C(=O)Cn2cc(NC(=O)CCOc3ccc(F)cc3C(F)(F)F)cn2)cc1 [Compound 60] the activation at 10 µM [1] was < 30%.
In the case of COc1cnccc1NCCC(=O)Nc1cnn(CC(=O)N(C)CCOc2ccc(C)cc2)c1 [Compound 198], the activation at 10 µM [1] was < 30%.
For Cc1ccc(OCCN(C)C(=O)Cn2cc(NC(=O)CCNc3ccc(C#N)cn3)cn2)cc1 [Compound 157], the activation at 10 µM [1] was < 30%.
With Cc1ccc(OCCN(C)C(=O)Cn2cc(NC(=O)CCNc3cc(C#N)ccn3)cn2)cc1 [Compound 137] the activation at 10 µM [1] was < 30%.
For Cc1ccc(OCCN(C)C(=O)Cn2cc(NC(=O)CCOc3ncccc3N)cn2)cc1 [Compound 114], the activation at 10 µM [1] was > 50%.
Cc1ccc(OCCN(C)C(=O)Cn2cc(NC(=O)CCOc3cccc(N(C)C)c3)cn2)cc1 [Compound 38] was tested, and the activation at 10 µM [1] was > 50%.
For Cc1nnc(OCCN(C)C(=O)Cn2cc(NC(=O)CCNc3ccc(F)nc3C)cn2)s1 [Compound 247], the activation at 10 µM [1] was < 30%.
Molecule CN(CCOc1ccc(C(F)(F)F)cc1)C(=O)Cn1cc(NC(=O)CCOc2ccncc2F)cn1 [Compound 19] has an activation at 10 µM [1] of 30 to 50%.
Cc1ccc(OCCN(C)C(=O)Cn2cc(NC(=O)CCNc3ncc(C#N)cn3)cn2)cc1 [Compound 125] was tested, and the activation at 10 µM [1] was < 30%.
With Cc1ccc(OCCN(C)C(=O)Cn2cc(NC(=O)CCNc3cnc4c(c3)OCO4)cn2)cc1 [Compound 295, 3-([1, 3]dioxolo[4,5-b]pyridin-6-ylamino)-N-(1-(2-(methyl (2-(p-tolyloxy)ethyl)amino)-2-oxoethyl)-1H-pyrazol-4-yl)propanamide] the activation at 10 µM [1] was > 50%.
In the case of Cc1ccc(OCCN(C)C(=O)Cn2cc(NC(=O)CCOc3ccc(F)cc3F)cn2)cc1 [Compound 49], the activation at 10 µM [1] was > 50%.
With Cc1ccc(OCCN(C)C(=O)Cn2cc(NC(=O)CCNc3ncccc3Cl)cn2)cc1 [Compound 148] the activation at 10 µM [1] was 30 to 50%.
CCc1ccc(OCCN(C)C(=O)Cn2cc(NC(=O)CCOc3ccccc3F)cn2)cc1 [Compound 52] showed an activation at 10 µM [1] of 30 to 50%.
In the case of Cc1ccc(OCCN(C)C(=O)Cn2cc(NC(=O)CCNc3ccncc3Cl)cn2)cc1 [Compound 182], the activation at 10 µM [1] was > 50%.
In the case of Cc1ccc(OCCN(C)C(=O)Cn2cc(NC(=O)[C@@H](C)CNc3ccnc(F)n3)cn2)cc1 [Compound 224], the activation at 10 µM [1] was > 50%.
With Cc1ccc(OCCN(C)C(=O)Cn2cc(NC(=O)CCOc3ccc(C#N)cc3)cn2)cc1 [Compound 20, 3-(4-cyanophenoxy)-N-(1-(2-(methyl(2-(p-tolyloxy)ethyl)amino)-2-oxoethyl)-1H-pyrazol-4-yl)propanamide] the activation at 10 µM was < 30%.
For Cc1ccc(OCCN(C)C(=O)Cn2cc(NC(=O)CCNc3ccnc(F)c3Cl)cn2)cc1 [Compound 190], the activation at 10 µM [1] was < 30%.
In the case of COC(=O)Nc1cccc(NCCC(=O)Nc2cnn(CC(=O)N(C)CCOc3ccc(C)cc3)c2)n1 [Compound 253], the activation at 10 µM [1] was < 30%.
In the case of Cc1ccc(OCCN(C)C(=O)Cn2cc(NC(=O)CNC(=O)c3ccncc3)cn2)cc1 [Compound 259], the activation at 10 µM [1] was < 30%.
Cc1ccc(OCCN(C)C(=O)Cn2cc(NC(=O)CCNc3nc(C)ncc3C(C)C)cn2)cc1 [Compound 210] was tested, and the activation at 10 µM [1] was > 50%.
With Cc1ccc(OCCN(C)C(=O)Cn2cc(NC(=O)CCNc3ncc(Cl)cc3F)cn2)cc1 [Compound 140] the activation at 10 µM [1] was > 50%.
Molecule Cc1ccc(OCCN(C)C(=O)Cn2cc(NC(=O)CCNc3ccnc(F)c3)cn2)cc1 [Compound 131] has an activation at 10 µM [1] of 30 to 50%.
Cc1ccc(OCCN(C)C(=O)Cn2cc(NC(=O)CCOc3c(F)cccc3Cl)cn2)cc1 [Compound 57] gave an activation at 10 µM [1] of 30 to 50%.
In the case of Cc1ccc(OCCN(C)C(=O)Cn2cc(NC(=O)CCNc3ccc(C#N)nc3C)cn2)cc1 [Compound 176], the activation at 10 µM [1] was < 30%.
Cc1ccc(OCCN(C)C(=O)Cn2cc(NC(=O)CCNc3cnc(F)c(Cl)c3)cn2)cc1 [Compound 184] was tested, and the activation at 10 µM [1] was > 50%.
